Source: ChEMBL document CHEMBL5120927, “LEGO-Lipophosphonoxins: A Novel Approach in Designing Membrane Targeting Antimicrobials” (J Med Chem, 2022)
≈ marks a conversion by molar mass, not a printed value.

Assays:
[1] = tested on: Staphylococcus aureus; assay: Antibacterial activity against wild type Staphylococcus aureus 4740/B assessed as reduction in microbial growth incubated for 24 hrs by microdilution assay; format: functional
[2] = tested on: Staphylococcus aureus; assay: Antibacterial activity against wild type Staphylococcus aureus 4561/A assessed as reduction in microbial growth incubated for 24 hrs by microdilution assay; format: functional
[3] = tested on: Staphylococcus aureus; assay: Antibacterial activity against wild type Staphylococcus aureus 4717/B assessed as reduction in microbial growth incubated for 24 hrs by microdilution assay; format: functional
[4] = tested on: Staphylococcus aureus; assay: Antibacterial activity against wild type Staphylococcus aureus 4502/A assessed as reduction in microbial growth incubated for 24 hrs by microdilution assay; format: functional
[5] = tested on: Staphylococcus aureus; assay: Antibacterial activity against wild type Staphylococcus aureus 4679/B assessed as reduction in microbial growth incubated for 24 hrs by microdilution assay; format: functional
[6] = tested on: Staphylococcus aureus; assay: microbe, parasite or virus in culture; conditions: 4880/C, 24 h
Description: Antibacterial activity against wild type Staphylococcus aureus 4880/C assessed as reduction in microbial growth incubated for 24 hrs by microdilution assay

[7] = tested on: Staphylococcus aureus; assay: Antibacterial activity against wild type Staphylococcus aureus 77/CF assessed as reduction in microbial growth incubated for 24 hrs by microdilution assay; format: functional
[8] = tested on: Staphylococcus aureus; assay: Antibacterial activity against wild type Staphylococcus aureus 4788/B assessed as reduction in microbial growth incubated for 24 hrs by microdilution assay; format: functional
[9] = tested on: Staphylococcus aureus; assay: Antibacterial activity against […] Staphylococcus aureus 4463/A assessed as reduction in microbial growth incubated for 24 hrs by microdilution assay; format: functional
[10] = tested on: Staphylococcus aureus; assay: Antibacterial activity against wild type Staphylococcus aureus 4738/B assessed as reduction in microbial growth incubated for 24 hrs by microdilution assay; format: functional
[11] = tested on: Staphylococcus aureus; assay: Antibacterial activity against wild type Staphylococcus aureus 78/CF assessed as reduction in microbial growth incubated for 24 hrs by microdilution assay; format: functional
[12] = tested on: Staphylococcus aureus; assay: Antibacterial activity against wild type Staphylococcus aureus 4557/A assessed as reduction in microbial growth incubated for 24 hrs by microdilution assay; format: functional
[13] = tested on: Staphylococcus aureus; assay: Antibacterial activity against wild type Staphylococcus aureus 4515/A assessed as reduction in microbial growth incubated for 24 hrs by microdilution assay; format: functional
[14] = tested on: Staphylococcus aureus; assay: Antibacterial activity against wild type Staphylococcus aureus 4504/A assessed as reduction in microbial growth incubated for 24 hrs by microdilution assay; format: functional
[15] = tested on: Staphylococcus aureus; assay: microbe, parasite or virus in culture; conditions: 4862/C, 24 h
Description: Antibacterial activity against wild type Staphylococcus aureus 4862/C assessed as reduction in microbial growth incubated for 24 hrs by microdilution assay

[16] = tested on: Staphylococcus aureus; assay: Antibacterial activity against wild type Staphylococcus aureus 4883/C assessed as reduction in microbial growth incubated for 24 hrs by microdilution assay; format: functional
[17] = tested on: Staphylococcus aureus; assay: Antibacterial activity against […] Staphylococcus aureus 4461/A assessed as reduction in microbial growth incubated for 24 hrs by microdilution assay; format: functional
[18] = tested on: Staphylococcus aureus; assay: microbe, parasite or virus in culture; conditions: 5017/C, 24 h
Description: Antibacterial activity against wild type Staphylococcus aureus 5017/C assessed as reduction in microbial growth incubated for 24 hrs by microdilution assay

[19] = tested on: Staphylococcus aureus; assay: Antibacterial activity against wild type Staphylococcus aureus 4968/C assessed as reduction in microbial growth incubated for 24 hrs by microdilution assay; format: functional
[20] = tested on: Staphylococcus aureus; assay: Antibacterial activity against wild type Staphylococcus aureus 4482/A assessed as reduction in microbial growth incubated for 24 hrs by microdilution assay; format: functional
[21] = tested on: Staphylococcus aureus; assay: Antibacterial activity against […] Staphylococcus aureus 4460/A assessed as reduction in microbial growth incubated for 24 hrs by microdilution assay; format: functional
[22] = tested on: Staphylococcus aureus; assay: Antibacterial activity against wild type Staphylococcus aureus 5079/C assessed as reduction in microbial growth incubated for 24 hrs by microdilution assay; format: functional
[23] = tested on: Staphylococcus aureus; assay: Antibacterial activity against wild type Staphylococcus aureus 4566/A assessed as reduction in microbial growth incubated for 24 hrs by microdilution assay; format: functional
[24] = tested on: Staphylococcus aureus; assay: Antibacterial activity against wild type Staphylococcus aureus 4904/C assessed as reduction in microbial growth incubated for 24 hrs by microdilution assay; format: functional
[25] = tested on: Staphylococcus aureus; assay: Antibacterial activity against wild type methicillin resistant Staphylococcus aureus 5017/C assessed as reduction in microbial growth incubated for 24 hrs by microdilution assay; format: functional
[26] = tested on: Staphylococcus aureus; assay: Antibacterial activity against wild type methicillin resistant Staphylococcus aureus 4968/C assessed as reduction in microbial growth incubated for 24 hrs by microdilution assay; format: functional
[27] = tested on: Staphylococcus aureus; assay: Antibacterial activity against antibiotic resistant Staphylococcus aureus 77/CF assessed as reduction in microbial growth incubated for 24 hrs by microdilution assay; format: functional
[28] = tested on: Staphylococcus aureus; assay: Antibacterial activity against wild type methicillin resistant Staphylococcus aureus 4561/A assessed as reduction in microbial growth incubated for 24 hrs by microdilution assay; format: functional
[29] = tested on: Pseudomonas aeruginosa; assay: Antibacterial activity against Pseudomonas aeruginosa ATCC 27853 = CCM 3955 assessed as inhibition of bacterial growth incubated for 24 hrs by microdilution assay; format: functional
[30] = tested on: Enterococcus faecium; assay: Antibacterial activity against vancomycin resistant Enterococcus faecium 419/ANA assessed as reduction in microbial growth incubated for 24 hrs by microdilution assay; format: functional
[31] = tested on: Staphylococcus epidermidis; assay: Antibacterial activity against Staphylococcus epidermidis CCM 7221 assessed as inhibition of bacterial growth incubated for 24 hrs by microdilution assay; format: functional
[32] = tested on: Staphylococcus aureus; assay: Antibacterial activity against methicillin resistant Staphylococcus aureus 4591/A assessed as reduction in microbial growth incubated for 24 hrs by microdilution assay; format: functional
[33] = tested on: Pseudomonas aeruginosa; assay: Antibacterial activity against multidrug-resistant Pseudomonas aeruginosa assessed as reduction in microbial growth incubated for 24 hrs by microdilution assay; format: functional
[34] = tested on: Staphylococcus aureus; assay: Antibacterial activity against Staphylococcus aureus ATCC 29213 = CCM 4223 assessed as inhibition of bacterial growth incubated for 24 hrs by microdilution assay; format: functional
[35] = Gradient chromatographic hydrophobicity index of the compound at pH 3.7 by HPLC analysis; format: ADME
[36] = tested on: Escherichia coli; assay: Antibacterial activity against Escherichia coli ATCC 25922 = CCM 3954 assessed as inhibition of bacterial growth incubated for 24 hrs by microdilution assay; format: functional
[37] = tested on: Staphylococcus aureus; assay: Antibacterial activity against Staphylococcus aureus ATCC 29213 = CCM 4223 assessed as inhibition of bacterial growth incubated for 24 hrs in presence of BSA by microdilution assay; format: functional
[38] = tested on: Escherichia coli; assay: Antibacterial activity against multidrug-resistant Escherichia coli CE5556 expressing CTX-M-15 assessed as reduction in microbial growth incubated for 24 hrs by microdilution assay; format: functional
[39] = tested on: Enterococcus faecalis; assay: Antibacterial activity against Enterococcus faecalis ATCC 29212 = CCM 4224 assessed as inhibition of bacterial growth incubated for 24 hrs by microdilution assay; format: functional
[40] = Hemolytic activity in human RBC assessed as haemoglobin release measured after 3 hr; format: toxicity, cell-based, Erythrocyte; conditions: red blood cells (erythrocytes)
[41] = tested on: Escherichia coli; assay: Antibacterial activity against Escherichia coli ATCC 25922 = CCM 3954 assessed as inhibition of bacterial growth incubated for 24 hrs in presence of BSA by microdilution assay; format: functional
[42] = Cytotoxicity against human HepG2 cells assessed as reduction in cell viability; format: toxicity, cell-based

| Structure (SMILES) | MIC [1] [µg/mL] | MIC [3] [µg/mL] | MIC [4] [µg/mL] | MIC [5] [µg/mL] | MIC [6] [µg/mL] | MIC [8] [µg/mL] | MIC [9] [µg/mL] | MIC [10] [µg/mL] | MIC [11] [µg/mL] | MIC [12] [µg/mL] | MIC [13] [µg/mL] | MIC [14] [µg/mL] | MIC [15] [µg/mL] | MIC [16] [µg/mL] | MIC [17] [µg/mL] | MIC [20] [µg/mL] | MIC [21] [µg/mL] | MIC [22] [µg/mL] | MIC [23] [µg/mL] | MIC [24] [µg/mL] | further results |
| --- | --- | --- | --- | --- | --- | --- | --- | --- | --- | --- | --- | --- | --- | --- | --- | --- | --- | --- | --- | --- | --- |
| O=C(N[C@H](CO)[C@H](O)c1ccc([N+](=O)[O-])cc1)C(Cl)Cl [CHLORAMPHENICOL] | 1 | 4 | 2 | 4 | 2 (≈ 6.19 µM) | 2 | 2 | 4 | 1 | 2 | 2 | 4 | 4 (≈ 12.4 µM) | 4 | 2 | 2 | 2 | 2 | 4 | 2 | MIC [2]: 4 µg/mL; MIC [7]: 1 µg/mL; MIC [18]: 4 µg/mL (≈ 12.4 µM); MIC [19]: 4 µg/mL |
| CCC[C@@H]1C[C@@H](C(=O)N[C@@H]([C@H]2O[C@H](SC)[C@H](O)[C@@H](O)[C@H]2O)[C@H](C)Cl)N(C)C1 [CLINDAMYCIN] | 0.125 | 0.125 | 0.063 | 0.125 | 0.25 (≈ 0.588 µM) | 0.063 | 0.125 | 0.125 | 0.063 | 0.125 | 0.125 | 0.125 | 0.125 (≈ 0.294 µM) | 0.125 | 0.125 | 0.125 | 0.125 | 0.063 | 0.125 | 0.125 | MIC [25]: > 8 µg/mL; MIC [26]: > 8 µg/mL; MIC [27]: > 8 µg/mL; MIC [28]: > 4 µg/mL |
| CCCCCCOP(=O)(CCN(CCCNC(=N)N)CCCNC(=N)N)OCCCCCCCCOP(=O)(CCN(CCCNC(=N)N)CCCNC(=N)N)OCCCCCC.Cl.Cl.Cl.Cl.Cl.Cl (stereo unspecified) | 0.5 | 0.25 | 0.5 | 0.5 | 0.5 | 0.5 | 0.5 | 0.5 | 0.5 | 0.5 | 0.5 | 0.25 | 0.5 | 0.5 | 0.5 | 0.5 | 0.5 | 0.5 | 0.5 | 0.5 | MIC [2]: 0.5 µg/mL; MIC [29]: 8 µg/mL; MIC [30]: 16 µg/mL; MIC [31]: 0.5 µg/mL; MIC [32]: 5 µg/mL; MIC [7]: 0.5 µg/mL; MIC [33]: 8 µg/mL; MIC [34]: 5 µg/mL; CHI [35]: 31.5; MIC [36]: 16 µg/mL; MIC [37]: 0.5 µg/mL; MIC [18]: 0.5 µg/mL; MIC [38]: 5 µg/mL; MIC [19]: 0.5 µg/mL; MIC [39]: 8 µg/mL; HC50 at 3 h [40]: 139 µg/mL; MIC [41]: 2 µg/mL |
| CC1(C)S[C@@H]2[C@H](NC(=O)[C@H](N)c3ccccc3)C(=O)N2[C@H]1C(=O)O [AMPICILLIN] | 0.5 | 0.5 | 0.5 | 1 | 0.5 (≈ 1.43 µM) | 0.5 | 0.5 | 0.5 | 0.5 | 0.5 | 0.5 | 0.5 | 1 (≈ 2.86 µM) | 0.5 | 1 | 1 | 1 | 0.5 | 0.5 | 0.5 | MIC [7]: 0.5 µg/mL; MIC [25]: > 16 µg/mL |
| CCCCCCCCOP(=O)(CCN(CCN)CCN)OCCCCCCOP(=O)(CCN(CCN)CCN)OCCCCCCCC.Cl.Cl.Cl.Cl.Cl.Cl (stereo unspecified) |  |  |  |  |  |  |  |  |  |  |  |  |  |  |  |  |  |  |  |  | MIC [29]: 2 µg/mL; MIC [30]: 4 µg/mL; MIC [31]: 0.5 µg/mL; MIC [32]: 0.5 µg/mL; MIC [33]: 2 µg/mL; MIC [34]: 0.5 µg/mL; CHI [35]: 43.2; MIC [36]: 1 µg/mL; MIC [37]: 5 µg/mL; MIC [38]: 1 µg/mL; MIC [39]: 1 µg/mL; HC50 at 3 h [40]: 79 µg/mL; CC50 [42]: 80.6 µM; MIC [41]: 1 µg/mL |
